{"source": "patent US20260183295A1", "about": "“METHODS AND COMPOSITIONS FOR TREATING CANCER” (Onconova Therapeutics, Inc., priority 2022, published 2026)", "test_in_all_cases": "CETSA-MS, MDA-MB-231 intact cells", "type_in_all_cases": "cell-based", "conditions_in_all_cases": "2 μM and 20 μM", "key": {"ACAA1": {"biological_target": "T1, ACAA1 (Homo sapiens, UniProt P09110)", "T1 construct": "endogenous in cells; host or cells: MDA-MB-231", "T1 sequence (P09110 27-424)": "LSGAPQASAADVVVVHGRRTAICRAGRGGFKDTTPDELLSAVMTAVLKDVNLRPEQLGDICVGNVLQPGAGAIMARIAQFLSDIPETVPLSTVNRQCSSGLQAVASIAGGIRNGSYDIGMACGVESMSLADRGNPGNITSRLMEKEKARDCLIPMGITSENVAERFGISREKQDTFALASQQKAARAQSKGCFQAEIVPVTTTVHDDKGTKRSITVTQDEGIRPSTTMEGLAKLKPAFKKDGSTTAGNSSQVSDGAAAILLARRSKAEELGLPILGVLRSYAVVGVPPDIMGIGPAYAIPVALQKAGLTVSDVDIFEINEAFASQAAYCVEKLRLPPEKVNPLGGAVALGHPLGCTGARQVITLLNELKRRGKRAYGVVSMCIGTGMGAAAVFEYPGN", "how_it_was_run": "(§1)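 Intact MDA-MB-231 cells were incubated with compound, pelleted, washed and heated across a thermal gradient. After freeze-lysis, sonication and centrifugation, soluble protein was acetone-precipitated, digested, labeled and quantified by mass spectrometry proteomics to track thermal stabilization.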"}, "AIFM2": {"biological_target": "T2, AIFM2 (Homo sapiens, UniProt Q9BRQ8)", "T2 construct": "endogenous in cells; host or cells: MDA-MB-231", "T2 sequence (Q9BRQ8 whole entry)": "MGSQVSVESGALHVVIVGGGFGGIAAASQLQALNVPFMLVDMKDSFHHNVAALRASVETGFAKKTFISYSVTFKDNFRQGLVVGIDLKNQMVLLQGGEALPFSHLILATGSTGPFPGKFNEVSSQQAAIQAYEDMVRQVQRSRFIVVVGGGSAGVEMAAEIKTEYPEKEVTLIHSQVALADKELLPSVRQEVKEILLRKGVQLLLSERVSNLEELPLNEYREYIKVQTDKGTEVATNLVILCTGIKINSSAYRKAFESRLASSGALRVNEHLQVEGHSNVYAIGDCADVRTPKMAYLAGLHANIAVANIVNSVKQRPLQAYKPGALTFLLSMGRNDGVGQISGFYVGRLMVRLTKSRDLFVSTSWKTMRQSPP", "how_it_was_run": "as §1"}, "AP2A1": {"biological_target": "T3, AP2A1 (Homo sapiens, UniProt O95782)", "T3 construct": "endogenous in cells; host or cells: MDA-MB-231", "how_it_was_run": "as §1"}, "CAVIN1": {"biological_target": "T4, CAVIN1 (Homo sapiens, UniProt Q6NZI2)", "T4 construct": "endogenous in cells; host or cells: MDA-MB-231", "how_it_was_run": "as §1"}, "CERS2": {"biological_target": "T5, CERS2 (Homo sapiens, UniProt Q96G23)", "T5 construct": "endogenous in cells; host or cells: MDA-MB-231", "how_it_was_run": "as §1"}, "CHEK1": {"biological_target": "T6, CHEK1 (Homo sapiens, UniProt O14757)", "T6 construct": "endogenous in cells; host or cells: MDA-MB-231", "T6 sequence (O14757 1-476)": "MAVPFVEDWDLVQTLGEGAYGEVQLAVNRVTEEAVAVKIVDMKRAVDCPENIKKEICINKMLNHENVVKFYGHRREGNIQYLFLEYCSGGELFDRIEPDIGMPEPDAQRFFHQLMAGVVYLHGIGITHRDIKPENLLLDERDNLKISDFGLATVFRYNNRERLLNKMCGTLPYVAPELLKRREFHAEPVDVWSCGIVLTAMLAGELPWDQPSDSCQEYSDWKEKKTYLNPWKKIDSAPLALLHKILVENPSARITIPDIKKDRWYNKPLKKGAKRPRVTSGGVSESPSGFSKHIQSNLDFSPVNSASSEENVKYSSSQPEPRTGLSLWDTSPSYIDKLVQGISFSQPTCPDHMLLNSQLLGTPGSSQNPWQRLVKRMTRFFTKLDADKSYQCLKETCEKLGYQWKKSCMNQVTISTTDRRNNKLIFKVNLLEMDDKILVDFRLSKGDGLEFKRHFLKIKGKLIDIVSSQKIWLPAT", "how_it_was_run": "as §1"}, "COG8": {"biological_target": "T7, COG8 (Homo sapiens, UniProt Q96MW5)", "T7 construct": "endogenous in cells; host or cells: MDA-MB-231", "how_it_was_run": "as §1"}, "FBRS": {"system": "FBRS", "how_it_was_run": "as §1"}, "HNRNPA3": {"biological_target": "T8, HNRNPA3 (Homo sapiens, UniProt P51991)", "T8 construct": "148 targets unique to Compound 1 in MDA-MB-231 intact cells; endogenous in cells; host or cells: MDA-MB-231", "how_it_was_run": "as §1"}, "HNRNPL": {"biological_target": "T9, HNRNPL (Homo sapiens, UniProt P14866)", "T9 construct": "endogenous in cells; host or cells: MDA-MB-231", "T9 sequence (P14866 whole entry)": "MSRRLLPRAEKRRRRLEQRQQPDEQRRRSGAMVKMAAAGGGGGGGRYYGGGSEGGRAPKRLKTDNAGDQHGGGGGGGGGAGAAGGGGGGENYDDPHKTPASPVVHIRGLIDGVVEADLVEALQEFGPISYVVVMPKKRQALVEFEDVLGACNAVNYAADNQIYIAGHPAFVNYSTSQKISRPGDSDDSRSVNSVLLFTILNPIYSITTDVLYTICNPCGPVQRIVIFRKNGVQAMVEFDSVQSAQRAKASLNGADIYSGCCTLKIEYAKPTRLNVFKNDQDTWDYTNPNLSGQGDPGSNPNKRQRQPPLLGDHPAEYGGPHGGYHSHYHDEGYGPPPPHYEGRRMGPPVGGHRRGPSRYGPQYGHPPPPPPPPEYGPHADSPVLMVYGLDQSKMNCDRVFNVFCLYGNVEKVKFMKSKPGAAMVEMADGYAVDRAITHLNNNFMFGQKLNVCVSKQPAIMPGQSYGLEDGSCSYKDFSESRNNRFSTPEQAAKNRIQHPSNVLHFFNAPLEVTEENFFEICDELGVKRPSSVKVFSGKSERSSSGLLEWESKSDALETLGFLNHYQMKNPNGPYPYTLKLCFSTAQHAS", "how_it_was_run": "as §1"}, "HNRNPR": {"biological_target": "T10, HNRNPR (Homo sapiens, UniProt O43390)", "T10 construct": "endogenous in cells; host or cells: MDA-MB-231", "how_it_was_run": "as §1"}, "HNRNPUL2": {"biological_target": "T11, HNRNPUL2 (Homo sapiens, UniProt Q1KMD3)", "T11 construct": "endogenous in cells; host or cells: MDA-MB-231", "how_it_was_run": "as §1"}, "HSPG2": {"biological_target": "T12, HSPG2 (Homo sapiens, UniProt P98160)", "T12 construct": "endogenous in cells; host or cells: MDA-MB-231", "how_it_was_run": "as §1"}, "ILF3": {"biological_target": "T13, ILF3 (Homo sapiens, UniProt Q12906)", "T13 construct": "endogenous in cells; host or cells: MDA-MB-231", "how_it_was_run": "as §1"}, "LAMA5": {"biological_target": "T14, LAMA5 (Homo sapiens, UniProt O15230)", "T14 construct": "endogenous in cells; host or cells: MDA-MB-231", "how_it_was_run": "as §1"}, "LRCH4": {"biological_target": "T15, LRCH4 (Homo sapiens, UniProt O75427)", "T15 construct": "endogenous in cells; host or cells: MDA-MB-231", "how_it_was_run": "as §1"}, "LTBP2": {"biological_target": "T16, LTBP2 (Homo sapiens, UniProt Q14767)", "T16 construct": "endogenous in cells; host or cells: MDA-MB-231", "how_it_was_run": "as §1"}, "MRPL55": {"biological_target": "T17, MRPL55 (Homo sapiens, UniProt Q7Z7F7)", "T17 construct": "endogenous in cells; host or cells: MDA-MB-231", "how_it_was_run": "as §1"}, "NAP1L1": {"biological_target": "T18, NAP1L1 (Homo sapiens, UniProt P55209)", "T18 construct": "endogenous in cells; host or cells: MDA-MB-231", "how_it_was_run": "as §1"}, "NAPG": {"biological_target": "T19, NAPG (Homo sapiens, UniProt Q99747)", "T19 construct": "endogenous in cells; host or cells: MDA-MB-231", "T19 sequence (Q99747 whole entry)": "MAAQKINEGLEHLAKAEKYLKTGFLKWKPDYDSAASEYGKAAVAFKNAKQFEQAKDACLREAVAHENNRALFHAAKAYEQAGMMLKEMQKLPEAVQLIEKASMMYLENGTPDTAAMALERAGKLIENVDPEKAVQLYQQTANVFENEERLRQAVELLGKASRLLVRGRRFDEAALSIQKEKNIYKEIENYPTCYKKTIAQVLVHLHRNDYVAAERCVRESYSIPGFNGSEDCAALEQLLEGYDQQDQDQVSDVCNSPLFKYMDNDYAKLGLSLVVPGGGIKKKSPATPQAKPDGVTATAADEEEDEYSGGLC", "how_it_was_run": "as §1"}, "PIP4K2A": {"biological_target": "T20, PIP4K2A (Homo sapiens, UniProt P48426)", "T20 construct": "endogenous in cells; host or cells: MDA-MB-231", "T20 sequence (P48426 whole entry)": "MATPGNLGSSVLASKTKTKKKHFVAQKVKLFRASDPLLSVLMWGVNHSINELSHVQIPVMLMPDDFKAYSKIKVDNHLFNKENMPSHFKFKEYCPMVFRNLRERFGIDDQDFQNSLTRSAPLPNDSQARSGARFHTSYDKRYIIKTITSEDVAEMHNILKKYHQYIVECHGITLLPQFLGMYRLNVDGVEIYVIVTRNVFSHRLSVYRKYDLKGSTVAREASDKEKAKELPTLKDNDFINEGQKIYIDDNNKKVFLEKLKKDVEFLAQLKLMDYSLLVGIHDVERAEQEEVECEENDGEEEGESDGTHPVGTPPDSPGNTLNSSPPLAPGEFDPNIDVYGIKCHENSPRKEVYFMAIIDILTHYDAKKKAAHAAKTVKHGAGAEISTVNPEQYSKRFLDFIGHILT", "how_it_was_run": "as §1"}, "PRPF4B": {"biological_target": "T21, PRPF4B (Homo sapiens, UniProt Q13523)", "T21 construct": "endogenous in cells; host or cells: MDA-MB-231", "how_it_was_run": "as §1"}, "PUS7L": {"biological_target": "T22, PUS7L (Homo sapiens, UniProt Q9H0K6)", "T22 construct": "endogenous in cells; host or cells: MDA-MB-231", "T22 sequence (Q9H0K6 whole entry)": "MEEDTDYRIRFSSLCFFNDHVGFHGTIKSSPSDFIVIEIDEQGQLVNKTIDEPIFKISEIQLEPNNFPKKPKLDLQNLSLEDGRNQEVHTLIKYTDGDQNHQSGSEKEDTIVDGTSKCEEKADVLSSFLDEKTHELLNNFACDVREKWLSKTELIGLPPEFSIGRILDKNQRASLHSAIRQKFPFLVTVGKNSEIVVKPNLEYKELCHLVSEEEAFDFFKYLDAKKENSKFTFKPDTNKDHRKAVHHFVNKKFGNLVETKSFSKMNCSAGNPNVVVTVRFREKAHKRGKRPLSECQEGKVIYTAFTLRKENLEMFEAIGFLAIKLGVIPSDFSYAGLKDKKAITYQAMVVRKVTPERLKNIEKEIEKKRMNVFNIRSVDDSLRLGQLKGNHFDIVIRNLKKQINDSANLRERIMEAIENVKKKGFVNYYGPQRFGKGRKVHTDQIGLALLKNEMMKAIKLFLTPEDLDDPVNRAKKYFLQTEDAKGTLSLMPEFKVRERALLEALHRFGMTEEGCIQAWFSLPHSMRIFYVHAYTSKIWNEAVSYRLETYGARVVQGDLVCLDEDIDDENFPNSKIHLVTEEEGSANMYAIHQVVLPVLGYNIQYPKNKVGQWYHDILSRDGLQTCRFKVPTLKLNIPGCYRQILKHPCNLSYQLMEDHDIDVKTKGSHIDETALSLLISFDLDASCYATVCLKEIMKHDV", "how_it_was_run": "as §1"}, "SMAD1": {"biological_target": "T23, SMAD1 (Homo sapiens, UniProt Q15797)", "T23 construct": "endogenous in cells; host or cells: MDA-MB-231", "T23 sequence (Q15797 whole entry)": "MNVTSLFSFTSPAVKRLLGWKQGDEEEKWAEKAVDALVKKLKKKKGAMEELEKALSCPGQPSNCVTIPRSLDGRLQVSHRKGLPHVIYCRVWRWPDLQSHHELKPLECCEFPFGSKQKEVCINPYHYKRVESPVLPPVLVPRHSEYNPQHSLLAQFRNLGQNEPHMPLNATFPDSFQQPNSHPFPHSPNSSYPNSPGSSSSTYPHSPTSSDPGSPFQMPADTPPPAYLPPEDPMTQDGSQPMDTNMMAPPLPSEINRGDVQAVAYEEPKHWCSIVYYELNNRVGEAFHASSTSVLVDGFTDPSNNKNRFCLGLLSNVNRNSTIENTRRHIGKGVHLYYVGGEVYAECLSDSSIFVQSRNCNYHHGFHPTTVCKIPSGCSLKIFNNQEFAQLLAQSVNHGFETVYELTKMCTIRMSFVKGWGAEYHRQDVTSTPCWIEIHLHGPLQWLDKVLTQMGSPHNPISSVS", "how_it_was_run": "as §1"}, "SMU1": {"biological_target": "T24, SMU1 (Homo sapiens, UniProt Q2TAY7)", "T24 construct": "endogenous in cells; host or cells: MDA-MB-231", "how_it_was_run": "as §1"}, "STK10": {"biological_target": "T25, STK10 (Homo sapiens, UniProt O94804)", "T25 construct": "endogenous in cells; host or cells: MDA-MB-231", "T25 sequence (O94804 whole entry)": "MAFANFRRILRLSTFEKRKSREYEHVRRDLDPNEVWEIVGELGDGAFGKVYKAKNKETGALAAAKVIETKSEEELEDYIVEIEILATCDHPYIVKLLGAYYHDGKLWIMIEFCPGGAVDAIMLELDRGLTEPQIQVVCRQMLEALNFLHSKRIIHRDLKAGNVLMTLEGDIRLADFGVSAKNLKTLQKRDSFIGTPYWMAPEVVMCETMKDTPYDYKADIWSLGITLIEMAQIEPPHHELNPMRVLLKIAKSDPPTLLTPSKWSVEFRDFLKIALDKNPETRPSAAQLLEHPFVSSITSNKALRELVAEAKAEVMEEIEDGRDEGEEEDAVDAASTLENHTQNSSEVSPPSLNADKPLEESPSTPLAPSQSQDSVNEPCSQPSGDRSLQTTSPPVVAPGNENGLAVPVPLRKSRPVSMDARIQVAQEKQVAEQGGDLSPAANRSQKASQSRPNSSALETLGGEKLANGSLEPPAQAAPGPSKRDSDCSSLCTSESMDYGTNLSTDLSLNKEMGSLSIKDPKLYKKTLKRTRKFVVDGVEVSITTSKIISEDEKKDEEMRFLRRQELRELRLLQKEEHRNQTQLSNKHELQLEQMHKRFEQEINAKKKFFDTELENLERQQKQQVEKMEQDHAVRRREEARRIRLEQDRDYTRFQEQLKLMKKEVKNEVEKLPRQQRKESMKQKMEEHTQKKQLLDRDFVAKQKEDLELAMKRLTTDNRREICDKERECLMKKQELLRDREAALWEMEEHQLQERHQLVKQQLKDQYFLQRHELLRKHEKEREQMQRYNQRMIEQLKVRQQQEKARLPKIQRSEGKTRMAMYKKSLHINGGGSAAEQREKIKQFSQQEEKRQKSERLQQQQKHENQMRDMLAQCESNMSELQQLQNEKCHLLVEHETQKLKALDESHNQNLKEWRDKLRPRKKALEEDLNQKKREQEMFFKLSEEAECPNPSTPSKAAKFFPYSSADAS", "how_it_was_run": "as §1"}, "SYNE2": {"biological_target": "T26, SYNE2 (Homo sapiens, UniProt Q8WXH0)", "T26 construct": "endogenous in cells; host or cells: MDA-MB-231", "how_it_was_run": "as §1"}, "TAF15": {"biological_target": "T27, TAF15 (Homo sapiens, UniProt Q92804)", "T27 construct": "endogenous in cells; host or cells: MDA-MB-231", "how_it_was_run": "as §1"}, "YES1": {"biological_target": "T28, YES1 (Homo sapiens, UniProt P07947)", "T28 construct": "endogenous in cells; host or cells: MDA-MB-231", "T28 sequence (P07947 whole entry)": "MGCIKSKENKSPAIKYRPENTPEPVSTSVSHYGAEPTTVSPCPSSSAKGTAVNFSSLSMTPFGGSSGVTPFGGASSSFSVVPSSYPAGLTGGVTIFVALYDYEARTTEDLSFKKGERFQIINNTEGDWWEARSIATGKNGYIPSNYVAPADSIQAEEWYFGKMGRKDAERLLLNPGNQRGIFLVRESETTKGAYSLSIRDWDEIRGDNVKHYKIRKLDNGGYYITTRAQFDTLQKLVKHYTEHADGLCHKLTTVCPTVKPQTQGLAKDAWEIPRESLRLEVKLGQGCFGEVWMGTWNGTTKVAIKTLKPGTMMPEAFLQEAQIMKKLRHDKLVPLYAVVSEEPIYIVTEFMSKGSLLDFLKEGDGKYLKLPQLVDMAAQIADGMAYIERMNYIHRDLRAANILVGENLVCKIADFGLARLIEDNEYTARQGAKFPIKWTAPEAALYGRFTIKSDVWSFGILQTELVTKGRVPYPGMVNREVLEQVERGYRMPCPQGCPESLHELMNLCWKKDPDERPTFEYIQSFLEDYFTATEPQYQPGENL", "how_it_was_run": "as §1"}, "ZNF608": {"biological_target": "T29, ZNF608 (Homo sapiens, UniProt Q9ULD9)", "T29 construct": "endogenous in cells; host or cells: MDA-MB-231", "how_it_was_run": "as §1"}}}
{"molecule": "CN1CCN(c2ccc(Nc3ncc4cc(C#N)c(=O)n(C5CCCC5)c4n3)cc2)CC1", "note": "[Compound 1, 8-cyclopentyl-2-((4-(4-methylpiperazin-1-yl)phenyl)amino)-7-oxo-7,8-dihydropyrido[2,3-d]pyrimidine-6-carbonitrile]", "values": [{"measurement": "Group (CETSA-MS thermal shift)", "setting": "ACAA1", "value": "Destabilization"}, {"measurement": "Group (CETSA-MS thermal shift)", "setting": "AIFM2", "value": "Destabilization"}, {"measurement": "Group (CETSA-MS thermal shift)", "setting": "AP2A1", "value": "Destabilization"}, {"measurement": "Group (CETSA-MS thermal shift)", "setting": "CAVIN1", "value": "Stabilization"}, {"measurement": "Group (CETSA-MS thermal shift)", "setting": "CERS2", "value": "Stabilization"}, {"measurement": "Group (CETSA-MS thermal shift)", "setting": "CHEK1", "value": "Destabilization"}, {"measurement": "Group (CETSA-MS thermal shift)", "setting": "COG8", "value": "Destabilization"}, {"measurement": "Group (CETSA-MS thermal shift)", "setting": "FBRS", "value": "Stabilization"}, {"measurement": "Group (CETSA-MS thermal shift)", "setting": "HNRNPA3", "value": "Stabilization"}, {"measurement": "Group (CETSA-MS thermal shift)", "setting": "HNRNPL", "value": "Stabilization"}, {"measurement": "Group (CETSA-MS thermal shift)", "setting": "HNRNPR", "value": "Stabilization"}, {"measurement": "Group (CETSA-MS thermal shift)", "setting": "HNRNPUL2", "value": "Stabilization"}, {"measurement": "Group (CETSA-MS thermal shift)", "setting": "HSPG2", "value": "Stabilization"}, {"measurement": "Group (CETSA-MS thermal shift)", "setting": "ILF3", "value": "Stabilization"}, {"measurement": "Group (CETSA-MS thermal shift)", "setting": "LAMA5", "value": "Stabilization"}, {"measurement": "Group (CETSA-MS thermal shift)", "setting": "LRCH4", "value": "Stabilization"}, {"measurement": "Group (CETSA-MS thermal shift)", "setting": "LTBP2", "value": "Stabilization"}, {"measurement": "Group (CETSA-MS thermal shift)", "setting": "MRPL55", "value": "Stabilization"}, {"measurement": "Group (CETSA-MS thermal shift)", "setting": "NAP1L1", "value": "Stabilization"}, {"measurement": "Group (CETSA-MS thermal shift)", "setting": "NAPG", "value": "Stabilization"}, {"measurement": "Group (CETSA-MS thermal shift)", "setting": "PIP4K2A", "value": "Stabilization"}, {"measurement": "Group (CETSA-MS thermal shift)", "setting": "PRPF4B", "value": "Stabilization"}, {"measurement": "Group (CETSA-MS thermal shift)", "setting": "PUS7L", "value": "Destabilization"}, {"measurement": "Group (CETSA-MS thermal shift)", "setting": "SMAD1", "value": "Destabilization"}, {"measurement": "Group (CETSA-MS thermal shift)", "setting": "SMU1", "value": "Stabilization"}, {"measurement": "Group (CETSA-MS thermal shift)", "setting": "STK10", "value": "Stabilization"}, {"measurement": "Group (CETSA-MS thermal shift)", "setting": "SYNE2", "value": "Stabilization"}, {"measurement": "Group (CETSA-MS thermal shift)", "setting": "TAF15", "value": "Stabilization"}, {"measurement": "Group (CETSA-MS thermal shift)", "setting": "YES1", "value": "Destabilization"}, {"measurement": "Group (CETSA-MS thermal shift)", "setting": "ZNF608", "value": "Destabilization"}]}
